Measured values reported in ChEMBL document CHEMBL1150977, “A quantitative analysis of kinase inhibitor selectivity” (Nat Biotechnol, 2008).

Experiments:
[1] = biological target: Serine/threonine-protein kinase pim-3 (Homo sapiens, UniProt Q86V86)
[2] = biological target: T1, Tyrosine-protein kinase JAK3 (Homo sapiens, UniProt P52333)
T1 sequence (P52333 whole entry): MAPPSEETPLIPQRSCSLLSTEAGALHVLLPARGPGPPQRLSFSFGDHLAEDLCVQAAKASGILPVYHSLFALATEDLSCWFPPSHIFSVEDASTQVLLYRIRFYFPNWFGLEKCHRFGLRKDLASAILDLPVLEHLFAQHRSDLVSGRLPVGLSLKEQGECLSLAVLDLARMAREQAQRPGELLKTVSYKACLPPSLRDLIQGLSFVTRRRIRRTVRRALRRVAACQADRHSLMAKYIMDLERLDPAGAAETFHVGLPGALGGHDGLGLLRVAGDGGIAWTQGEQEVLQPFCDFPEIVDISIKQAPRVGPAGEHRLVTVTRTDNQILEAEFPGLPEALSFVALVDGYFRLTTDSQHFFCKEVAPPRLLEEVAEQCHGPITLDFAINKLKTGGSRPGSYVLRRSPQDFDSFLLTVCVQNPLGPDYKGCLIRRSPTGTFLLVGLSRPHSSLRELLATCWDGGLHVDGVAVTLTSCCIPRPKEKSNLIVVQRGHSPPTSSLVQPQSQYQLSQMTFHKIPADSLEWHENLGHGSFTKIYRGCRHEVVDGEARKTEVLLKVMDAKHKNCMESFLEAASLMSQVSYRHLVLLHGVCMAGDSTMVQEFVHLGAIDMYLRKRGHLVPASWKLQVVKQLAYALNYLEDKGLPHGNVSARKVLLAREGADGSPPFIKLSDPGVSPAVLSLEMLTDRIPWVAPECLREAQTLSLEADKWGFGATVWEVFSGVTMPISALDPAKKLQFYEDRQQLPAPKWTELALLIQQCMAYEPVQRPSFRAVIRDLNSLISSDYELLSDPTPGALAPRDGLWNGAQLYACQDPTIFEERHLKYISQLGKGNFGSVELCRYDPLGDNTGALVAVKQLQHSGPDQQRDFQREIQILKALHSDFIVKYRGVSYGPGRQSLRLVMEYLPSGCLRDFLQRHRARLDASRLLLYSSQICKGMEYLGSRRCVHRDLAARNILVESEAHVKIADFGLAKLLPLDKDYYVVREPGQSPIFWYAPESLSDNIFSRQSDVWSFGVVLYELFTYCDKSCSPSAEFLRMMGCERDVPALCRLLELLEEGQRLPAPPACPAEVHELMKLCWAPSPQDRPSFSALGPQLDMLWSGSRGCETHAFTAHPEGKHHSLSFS

[3] = biological target: Mitogen-activated protein kinase kinase kinase 20 (Homo sapiens, UniProt Q9NYL2)
Mitogen-activated protein kinase kinase kinase 20, sequence (Q9NYL2 whole entry): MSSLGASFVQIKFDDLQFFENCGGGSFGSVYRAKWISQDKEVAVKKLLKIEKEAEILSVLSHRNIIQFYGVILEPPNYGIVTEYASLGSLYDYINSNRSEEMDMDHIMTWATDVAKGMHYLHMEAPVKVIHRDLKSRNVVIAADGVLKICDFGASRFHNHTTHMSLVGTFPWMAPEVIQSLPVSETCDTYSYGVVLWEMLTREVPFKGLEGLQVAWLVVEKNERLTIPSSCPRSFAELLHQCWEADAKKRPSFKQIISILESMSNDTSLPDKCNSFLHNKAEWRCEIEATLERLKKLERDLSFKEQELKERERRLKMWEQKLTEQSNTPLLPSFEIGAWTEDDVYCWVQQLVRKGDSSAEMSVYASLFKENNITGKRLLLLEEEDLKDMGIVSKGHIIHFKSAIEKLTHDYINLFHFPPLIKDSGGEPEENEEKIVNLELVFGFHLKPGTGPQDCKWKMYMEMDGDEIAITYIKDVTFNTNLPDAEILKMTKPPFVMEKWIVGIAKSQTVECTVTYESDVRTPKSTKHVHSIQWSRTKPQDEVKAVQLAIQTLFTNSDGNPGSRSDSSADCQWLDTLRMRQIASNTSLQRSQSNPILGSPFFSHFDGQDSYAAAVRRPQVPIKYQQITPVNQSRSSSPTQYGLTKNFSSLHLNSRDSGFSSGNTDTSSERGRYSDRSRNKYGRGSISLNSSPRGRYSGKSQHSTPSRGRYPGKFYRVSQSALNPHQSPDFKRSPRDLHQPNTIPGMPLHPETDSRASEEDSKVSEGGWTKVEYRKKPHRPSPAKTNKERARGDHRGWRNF

[4] = biological target: T2, Serine/threonine-protein kinase BRSK2 (Homo sapiens, UniProt Q8IWQ3)
T2 sequence (Q8IWQ3 whole entry): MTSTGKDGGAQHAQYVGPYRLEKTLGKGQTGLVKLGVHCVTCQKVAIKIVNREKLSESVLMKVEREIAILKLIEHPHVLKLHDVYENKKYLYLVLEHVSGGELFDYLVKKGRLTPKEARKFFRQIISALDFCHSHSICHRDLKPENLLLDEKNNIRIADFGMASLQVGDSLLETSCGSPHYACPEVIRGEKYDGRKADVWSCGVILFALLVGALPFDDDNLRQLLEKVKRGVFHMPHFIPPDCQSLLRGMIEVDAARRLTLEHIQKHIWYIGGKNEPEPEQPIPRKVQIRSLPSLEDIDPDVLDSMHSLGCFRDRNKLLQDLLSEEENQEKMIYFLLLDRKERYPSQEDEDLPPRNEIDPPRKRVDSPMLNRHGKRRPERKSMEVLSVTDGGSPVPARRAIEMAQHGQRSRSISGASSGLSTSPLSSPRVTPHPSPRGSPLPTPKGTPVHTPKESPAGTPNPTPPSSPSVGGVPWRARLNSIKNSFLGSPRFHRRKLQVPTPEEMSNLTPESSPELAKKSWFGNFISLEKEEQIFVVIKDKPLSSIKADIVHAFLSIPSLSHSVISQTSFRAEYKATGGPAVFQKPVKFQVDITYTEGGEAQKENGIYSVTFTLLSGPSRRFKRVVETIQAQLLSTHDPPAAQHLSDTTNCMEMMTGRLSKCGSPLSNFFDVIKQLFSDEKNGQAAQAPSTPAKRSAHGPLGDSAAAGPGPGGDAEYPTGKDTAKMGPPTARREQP

[5] = biological target: T3, Serine/threonine-protein kinase Nek5 (Homo sapiens, UniProt Q6P3R8)
T3 sequence (Q6P3R8 whole entry): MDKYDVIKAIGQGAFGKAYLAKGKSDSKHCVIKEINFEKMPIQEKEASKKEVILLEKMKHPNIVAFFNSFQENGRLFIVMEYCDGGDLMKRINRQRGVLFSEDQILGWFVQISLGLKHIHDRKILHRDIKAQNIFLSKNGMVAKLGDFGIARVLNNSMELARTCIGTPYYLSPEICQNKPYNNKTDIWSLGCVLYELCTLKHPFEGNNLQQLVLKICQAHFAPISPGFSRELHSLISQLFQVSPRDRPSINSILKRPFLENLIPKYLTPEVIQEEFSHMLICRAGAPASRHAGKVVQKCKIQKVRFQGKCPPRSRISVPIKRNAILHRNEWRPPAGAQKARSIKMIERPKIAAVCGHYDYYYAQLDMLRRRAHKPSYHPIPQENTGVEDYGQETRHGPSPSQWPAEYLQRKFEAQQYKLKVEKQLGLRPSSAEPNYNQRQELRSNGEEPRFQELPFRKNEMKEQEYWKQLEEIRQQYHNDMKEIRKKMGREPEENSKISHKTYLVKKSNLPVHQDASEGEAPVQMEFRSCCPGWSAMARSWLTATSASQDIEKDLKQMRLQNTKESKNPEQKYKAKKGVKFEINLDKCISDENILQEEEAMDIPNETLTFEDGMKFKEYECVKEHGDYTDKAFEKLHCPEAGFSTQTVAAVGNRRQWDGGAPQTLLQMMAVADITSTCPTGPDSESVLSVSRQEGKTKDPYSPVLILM

[6] = biological target: Mitogen-activated protein kinase 7 (Homo sapiens, UniProt Q13164)
Mitogen-activated protein kinase 7, sequence (Q13164 whole entry): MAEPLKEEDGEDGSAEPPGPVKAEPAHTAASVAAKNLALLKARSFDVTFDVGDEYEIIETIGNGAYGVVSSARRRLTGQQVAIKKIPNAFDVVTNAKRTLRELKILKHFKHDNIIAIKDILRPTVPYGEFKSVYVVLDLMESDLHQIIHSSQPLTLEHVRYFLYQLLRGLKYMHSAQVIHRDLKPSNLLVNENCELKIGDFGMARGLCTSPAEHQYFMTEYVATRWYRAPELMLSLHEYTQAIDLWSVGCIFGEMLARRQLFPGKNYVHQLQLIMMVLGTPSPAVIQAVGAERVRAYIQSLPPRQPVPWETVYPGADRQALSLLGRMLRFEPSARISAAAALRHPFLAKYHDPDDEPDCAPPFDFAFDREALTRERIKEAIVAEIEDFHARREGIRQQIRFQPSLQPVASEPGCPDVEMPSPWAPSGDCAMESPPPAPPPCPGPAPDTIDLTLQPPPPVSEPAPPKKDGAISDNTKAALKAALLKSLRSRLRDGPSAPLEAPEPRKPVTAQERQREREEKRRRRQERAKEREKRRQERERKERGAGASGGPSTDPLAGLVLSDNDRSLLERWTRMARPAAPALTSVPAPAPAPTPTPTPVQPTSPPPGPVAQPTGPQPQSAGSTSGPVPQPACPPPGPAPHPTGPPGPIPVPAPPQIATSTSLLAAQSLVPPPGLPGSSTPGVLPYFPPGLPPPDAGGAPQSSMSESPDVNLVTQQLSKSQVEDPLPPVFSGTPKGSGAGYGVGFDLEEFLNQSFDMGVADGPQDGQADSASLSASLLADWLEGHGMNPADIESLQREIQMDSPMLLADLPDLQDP

[7] = biological target: Ribosomal protein S6 kinase alpha-2 (Homo sapiens, UniProt Q15349)
Ribosomal protein S6 kinase alpha-2, sequence (Q15349 whole entry): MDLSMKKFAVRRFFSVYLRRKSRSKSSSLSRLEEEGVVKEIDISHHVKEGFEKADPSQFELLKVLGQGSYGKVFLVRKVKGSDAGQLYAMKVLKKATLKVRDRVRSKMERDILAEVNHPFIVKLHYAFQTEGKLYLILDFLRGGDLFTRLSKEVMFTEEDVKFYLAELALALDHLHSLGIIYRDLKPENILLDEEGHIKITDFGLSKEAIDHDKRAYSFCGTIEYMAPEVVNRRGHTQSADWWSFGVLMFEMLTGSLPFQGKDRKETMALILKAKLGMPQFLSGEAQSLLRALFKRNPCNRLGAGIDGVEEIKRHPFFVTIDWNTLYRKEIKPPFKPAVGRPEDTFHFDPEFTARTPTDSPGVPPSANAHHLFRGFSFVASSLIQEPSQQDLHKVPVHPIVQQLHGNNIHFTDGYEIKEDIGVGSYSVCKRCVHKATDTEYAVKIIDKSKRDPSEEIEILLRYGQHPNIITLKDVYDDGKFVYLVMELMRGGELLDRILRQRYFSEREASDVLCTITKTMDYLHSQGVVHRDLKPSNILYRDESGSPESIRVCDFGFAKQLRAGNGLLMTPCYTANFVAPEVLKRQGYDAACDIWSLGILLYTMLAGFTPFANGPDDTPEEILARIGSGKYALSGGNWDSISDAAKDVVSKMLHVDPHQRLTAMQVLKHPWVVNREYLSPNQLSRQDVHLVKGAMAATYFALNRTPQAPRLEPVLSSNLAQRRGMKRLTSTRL

SMILES: COCC(=O)NC/C=C/c1ccc2ncnc(Nc3ccc(Oc4ccc(C)nc4)c(C)c3)c2c1 [CP-724714]
- Kd [1]: > 10 µM
- Kd [2]: > 10 µM
- Kd [3]: > 10 µM
- Kd [4]: > 10 µM
- Kd [5]: > 10 µM
- Kd [6]: > 10 µM
- Kd [7]: > 10 µM

SMILES: NC(=O)c1ccc(-c2nc(-c3ccc4c(c3)OCO4)c(-c3ccccn3)[nH]2)cc1 [SB-431542]
- Kd [1]: > 10 µM
- Kd [2]: > 10 µM
- Kd [3]: > 10 µM
- Kd [4]: > 10 µM
- Kd [5]: > 10 µM
- Kd [6]: > 10 µM
- Kd [7]: > 10 µM

SMILES: Nc1nc(Nc2ccc(S(N)(=O)=O)cc2)nn1C(=O)c1c(F)cccc1F [JNJ-7706621]
- Kd [1]: > 10 µM
- Kd [3]: > 10 µM
- Kd [4]: 2.7 µM
- Kd [5]: > 10 µM
- Kd [7]: > 10 µM

SMILES: CCOc1cc2ncc(C#N)c(Nc3ccc(F)c(Cl)c3)c2cc1NC(=O)/C=C/CN(C)C [PELITINIB]
- Kd [1]: > 10 µM
- Kd [2]: 0.025 µM
- Kd [3]: 1.2 µM
- Kd [4]: > 10 µM
- Kd [5]: > 10 µM
- Kd [6]: > 10 µM
- Kd [7]: 8.7 µM

SMILES: Oc1ccc(-c2nc(-c3ccncc3)c(-c3ccc(F)cc3)[nH]2)cc1 [SB-202190]
- Kd [1]: > 10 µM
- Kd [2]: > 10 µM
- Kd [3]: > 10 µM
- Kd [4]: > 10 µM
- Kd [5]: > 10 µM
- Kd [6]: > 10 µM
- Kd [7]: > 10 µM
